Test results as given in PubChem BioAssay (NCI).
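Cultured in 96-well plates, cells were exposed to test compound for 48 hours across five concentrations. GI50 is the concentration that inhibits growth by half. TGI: concentration producing complete growth inhibition.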

Experiments:
Test in all cases: NCI-60 cell line screen, 48 h
[1] = system: SF-539 CNS
[2] = system: DU-145 prostate
[3] = system: HS 578T breast
[4] = system: NCI/ADR-RES ovarian
[5] = system: HCC-2998 colon
[6] = system: MDA-MB-231 breast
[7] = system: CAKI-1 renal
[8] = system: HOP-92 NSCLC
[9] = system: U251 CNS
[10] = system: UACC-257 melanoma
[11] = system: TK-10 renal
[12] = system: SN12C renal
[13] = system: OVCAR-8 ovarian
[14] = system: IGROV1 ovarian
[15] = system: EKVX NSCLC
[16] = system: RPMI-8226 leukemia
[17] = system: MDA-MB-435
[18] = system: 786-0 renal
[19] = system: MCF7 breast
[20] = system: COLO 205 colon
[21] = system: NCI-H226 lung
[22] = system: ACHN renal
[23] = system: A498 renal
[24] = system: M14 melanoma
[25] = system: NCI-H23 lung
[26] = system: NCI-H522 lung
[27] = system: BT-549 breast
[28] = system: UO-31 renal
[29] = system: OVCAR-3 ovarian
[30] = system: KM12 colon
[31] = system: LOX IMVI melanoma
[32] = system: HCT-15 colon
[33] = system: SK-MEL-2 melanoma
[34] = system: SK-OV-3 ovarian
[35] = system: UACC-62 melanoma
[36] = system: MALME-3M melanoma
[37] = system: SK-MEL-28 melanoma
[38] = system: SK-MEL-5 melanoma
[39] = system: NCI-H460 lung
[40] = system: OVCAR-5 ovarian
[41] = system: SF-295 CNS
[42] = system: T-47D breast
[43] = system: SR leukemia
[44] = system: SW-620 colon
[45] = system: MOLT-4 leukemia
[46] = system: OVCAR-4 ovarian
[47] = system: PC-3 prostate
[48] = system: HCT-116 colon
[49] = system: SF-268 CNS
[50] = system: HOP-62 NSCLC
[51] = system: RXF 393 renal
[52] = system: HT29 colon
[53] = system: SNB-19 CNS
[54] = system: K-562 leukemia
[55] = system: A549 NSCLC

## Nc1nc(SCc2ccccc2)nc2[nH]ncc12
[1]
  GI50: 19 µM
  TGI: 41.7 µM
[2]
  GI50: 21.2 µM
  TGI: 55.4 µM
[3]
  GI50: 14.3 µM
  TGI: 34.5 µM
[4]
  GI50: 12.3 µM
  TGI: 27.8 µM
[5]
  GI50: 19.6 µM
  TGI: 34.4 µM
[6]
  GI50: 16.4 µM
  TGI: 31.7 µM
[7]
  GI50: 15.2 µM
  TGI: 28.8 µM
[8]
  GI50: 2.54 µM
  TGI: 11.7 µM
[9]
  GI50: 14.9 µM
  TGI: 33.6 µM
[10]
  GI50: 14.6 µM
  TGI: 28.1 µM
[11]
  GI50: 10 µM
  TGI: 21.9 µM
[12]
  GI50: 16.9 µM
  TGI: 31.3 µM
[13]
  GI50: 25.9 µM
  TGI: > 100 µM
[14]
  GI50: 19.4 µM
  TGI: 41.8 µM
[15]
  GI50: 16.1 µM
  TGI: 35.8 µM
[16]
  GI50: 7.76 µM
  TGI: 46 µM
[17]
  GI50: 15.8 µM
  TGI: 29.9 µM
[18]
  GI50: 18.7 µM
  TGI: 36 µM
[19]
  GI50: 11.8 µM
  TGI: 26.6 µM
[20]
  GI50: 17.1 µM
  TGI: 53.6 µM
[21]
  GI50: 13.4 µM
  TGI: 27.4 µM
[22]
  GI50: 15.5 µM
  TGI: 31.6 µM
[23]
  GI50: 10 µM
  TGI: 22.2 µM
[24]
  GI50: 19.4 µM
  TGI: 34.8 µM
[25]
  GI50: 12.6 µM
  TGI: 25.8 µM
[26]
  GI50: 17.9 µM
  TGI: 46 µM
[27]
  GI50: 17.3 µM
  TGI: 35.1 µM
[28]
  GI50: 18 µM
  TGI: 38.4 µM
[29]
  GI50: 12.6 µM
  TGI: 25.7 µM
[30]
  GI50: 14.1 µM
  TGI: 28.4 µM
[31]
  GI50: 20.8 µM
  TGI: 58.2 µM
[32]
  GI50: 20.4 µM
  TGI: > 100 µM
[33]
  GI50: 20.7 µM
  TGI: 48.9 µM
[34]
  GI50: 20 µM
  TGI: 39.1 µM
[35]
  GI50: 14.4 µM
  TGI: 27.9 µM
[36]
  GI50: 11.7 µM
  TGI: 24.3 µM
[37]
  GI50: 17.1 µM
  TGI: 35.9 µM
[38]
  GI50: 12 µM
  TGI: 25.1 µM
[39]
  GI50: 12.3 µM
  TGI: 29.4 µM
[40]
  GI50: 17.6 µM
  TGI: 31.7 µM
[41]
  GI50: 14.8 µM
  TGI: 29 µM
[42]
  GI50: 4.15 µM
  TGI: 15.6 µM
[43]
  GI50: 18 µM
  TGI: 51.1 µM
[44]
  GI50: 17.9 µM
  TGI: 37.6 µM
[45]
  GI50: 25.7 µM
  TGI: > 100 µM
[46]
  GI50: 12.2 µM
  TGI: 37.1 µM
[47]
  GI50: 13.7 µM
  TGI: 28.7 µM
[48]
  GI50: 13.2 µM
  TGI: 26.3 µM
[49]
  GI50: 20.5 µM
  TGI: 69.2 µM
[50]
  GI50: 18.7 µM
  TGI: 33.4 µM
[51]
  GI50: 3.62 µM
  TGI: 11.5 µM
[52]
  GI50: 17.1 µM
  TGI: 49.3 µM
[53]
  GI50: 19.8 µM
  TGI: 42.4 µM
[54]
  GI50: 14.3 µM
  TGI: > 100 µM
[55]
  GI50: 13.6 µM
  TGI: 29.1 µM
